As a reminder, the solubility is the concentration that dissolves in the medium under given conditions. A higher solubility goes with much dissolved substance.

The values that follow come from patent publication US12421260B2, “Neurokinin-1 antagonist” (SHANGHAI SHENGDI PHARMACEUTICAL CO., LTD, priority 2019, dated 2025).

Data set [1] is described as follows: Water solubility (Test Example 1). Format: physicochemical. Particulars: for solubility: aqueous buffer, thermodynamic from solid. The protocol: 1.1. Preparation of Reagents
The 100 mL strength reagents were prepared as follows:
pH=3.0: phosphate buffer solution: 100 ml of 20 mmol/L NaH2PO4, 0.1M H3PO4, adjusting pH to 3.0.
pH=4.0: phosphate buffer solution: 100 ml of 20 mmol/L NaH2PO4, 0.1M H3PO4, adjusting pH to 4.0. […]
An appropriate amount of test compound was accurately weighed. The solution was added at a small amount each time for several times and stirred until the compound was dissolved, and the content of the compound in the solution was determined.

Data set [2] in a line: Chemical stability of the compounds (Test Example 1). Format: physicochemical. Particulars: purity loss after placing for 7 days; 4° C. and room temperature. The protocol:
2.1 Test of Stability of the Compounds
About 1 mg of sample was weighed into a vial, then the vial was placed in a vacuum bag and the bag was vacuumized. Then the bag was put into a container containing color-changing silica gel and sealed. Two parallel samples were prepared. Enough samples were prepared according to the sampling time point and placed at 4° C. and room temperature respectively.

The nature of data set [3]: Plasma stability test (Test Example 3). Particulars: human plasma; for plasma concentration of the compound of the examples / plasma concentration of rolapitant after metabolism of the compound of the examples: 37° C.; for stability and metabolism to rolapitant in plasma (in words): up to 180 min. Format: in vitro ADME. The method, then: The compounds of Example 4, Example 6, Example 10 and Example 11.
Human fresh plasma was donated by volunteers with informed consent.
1) The test compounds in Table 3 were respectively prepared into 30 mM stock solutions with DMSO for later use.
2) The 30 mM stock solution was diluted with DMSO solution to solution I at a concentration of 1600 μM. Then the 1600 μM solution I was diluted with acetonitrile (ACN) to a working solution II at a concentration of 16 μM.
3) 7 time points of 0, 15, 30, 60, 90, 120 and 180 min were set in the experiment with two parallel samples for each time point. Two sample groups were set for each compound. 75 μL plasma and 5 μL of the above prepared working solution II with a concentration of 16 μM were added to each group. The reaction system was incubated at 37° C. until the preset time when the reaction was stopped by 300 μL of the ACN solution containing the internal standard. The reaction mixture was centrifuged at 3700 rpm for 10 min, and the supernatant was collected for analysis.
4) Preparation of the standard curve: the previously diluted 1600 μM solution I was diluted with acetonitrile to 1.5 μM/mL solution III as the standard curve for later use. The standard curve concentration was set to […]. After dilution of each concentration of the standard curve, 75 μL plasma was added to 5 μL of each concentration point at a final concentration of 0.02, 0.05, 0.1, 0.25, 0.75, 1.0 and 1.5 uM, respectively. 300 μL stop solution was then added to the samples quickly which was then centrifuged at 3700 rpm for 10 min, and the supernatant was collected for LC-MSMS analysis.

SMILES strings stand for the structures. ≈ marks a conversion by molar mass, not a printed value.

Regarding `Cc1oc(=O)oc1CN1C(=O)CC[C@]12CC[C@@](CO[C@H](C)c1cc(C(F)(F)F)cc(C(F)(F)F)c1)(c1ccccc1)NC2` [Example 3], the solubility in data set [1] (PH = 5) was less than 100 µg/mL. For the same compound, in data set [2], the Chemical stability entry was “Good (purity reduced by <0.5% after placing for 7 days)”.
As to `C[C@@H](OC[C@@]1(c2ccccc2)CC[C@]2(CCC(=O)N2)CN1C(=O)OCCN1CCN(C)CC1)c1cc(C(F)(F)F)cc(C(F)(F)F)c1` [Example 4], in data set [1] (phosphate buffer, PH = 3), the solubility amounted to 2080 µg/mL (≈ 3100 µM). In data set [2], the Chemical stability entry is on record as “Good (purity reduced by <0.5% after placing for 7 days)”. Besides, the “plasma concentration of the compound of the examples” value in data set [3] (0 min) stood at 1160 nM; in data set [3] (15 min), 980 nM; in data set [3] (30 min), 990 nM; in data set [3] (60 min), 1000 nM; in data set [3] (90 min), 970 nM; in data set [3] (120 min), 810 nM. In addition, the “plasma concentration of the compound of the examples” value in data set [3] (180 min) turned out to be 780 nM. For the same compound, in data set [3], the “stability and metabolism to rolapitant in plasma (in words)” value (shortened to “stability and metabolism to rolapitant”) is “relatively stable in plasma”.
In data set [1] (phosphate buffer, PH = 3), `C[C@@H](OC[C@@]1(c2ccccc2)CC[C@]2(CCC(=O)N2C(=O)OCC(=O)O)CN1)c1cc(C(F)(F)F)cc(C(F)(F)F)c1` [Example 6] returned a solubility of 1120 µg/mL (≈ 1860 µM). In addition, in data set [2], the Chemical stability entry is recorded as “Good (purity reduced by <0.5% after placing for 7 days)”. Moreover, the “plasma concentration of the compound of the examples” value in data set [3] (0 min) was 980 nM; in data set [3] (15 min), 850 nM; in data set [3] (30 min) it was 910 nM; in data set [3] (60 min), 850 nM; in data set [3] (90 min) it was 770 nM; in data set [3] (120 min), 700 nM. Further, the “plasma concentration of the compound of the examples” value in data set [3] (180 min) was 530 nM. Also, the “stability and metabolism to rolapitant” value in data set [3] is on record as “overall amount of metabolism in plasma is relatively small”.
Regarding `C[C@@H](OC[C@@]1(c2ccccc2)CC[C@]2(CCC(=O)N2COC(=O)N(C)C)CN1)c1cc(C(F)(F)F)cc(C(F)(F)F)c1` [Example 9], the solubility in data set [1] (phosphate buffer, PH = 3) was less than 100 µg/mL. Also, the Chemical stability result in data set [2] is listed as “Good (purity reduced by <0.5% after placing for 7 days)”.
`CC(C)[C@H](N)C(=O)OCCCOC(=O)N1C[C@@]2(CCC(=O)N2)CC[C@@]1(CO[C@H](C)c1cc(C(F)(F)F)cc(C(F)(F)F)c1)c1ccccc1.O=C(O)C(F)(F)F` [Example 10]: the Water solubility in data set [1] (PH = 3) was 1.86 mg/mL(PH = 3) mg/ml. The “plasma concentration of rolapitant after metabolism of the compound of the examples” value (“plasma concentration of rolapitant” below) in data set [3] (0 min), in data set [3] (15 min), in data set [3] (30 min), in data set [3] (60 min), in data set [3] (90 min) and in data set [3] (120 min) was 0 nM each time. The “plasma concentration of rolapitant” value in data set [3] (180 min) turned out to be 0 nM. In addition, the “plasma concentration of the compound of the examples” value stood at 1040 nM in data set [3] (0 min); 920 nM in data set [3] (15 min); 970 nM in data set [3] (30 min); 960 nM in data set [3] (60 min); 930 nM in data set [3] (90 min); 950 nM in data set [3] (120 min). For the same compound, the “plasma concentration of the compound of the examples” value in data set [3] (180 min) was determined as 880 nM. Further, in data set [3], the “stability and metabolism to rolapitant” value was “relatively stable in plasma”.
Consider `CC(C)[C@H](N)C(=O)OCCOC(=O)N1C[C@@]2(CCC(=O)N2)CC[C@@]1(CO[C@H](C)c1cc(C(F)(F)F)cc(C(F)(F)F)c1)c1ccccc1.O=C(O)C(F)(F)F` [Example 11], for which the Water solubility in data set [1] (PH = 3) is reported as 2.81 mg/mL(PH = 3) mg/ml. The Chemical stability result in data set [2] is listed as “Good (purity reduced by <0.5% after placing for 7 days)”. The “plasma concentration of rolapitant” value in data set [3] (0 min) turned out to be 10 nM; in data set [3] (15 min), 0 nM; in data set [3] (30 min), 0 nM; in data set [3] (60 min), 10 nM; in data set [3] (90 min), 0 nM; in data set [3] (120 min), 0 nM. Further, in data set [3] (180 min), the “plasma concentration of rolapitant” value worked out at 0 nM. The “plasma concentration of the compound of the examples” value is 1010 nM in data set [3] (0 min); 990 nM in data set [3] (15 min); 910 nM in data set [3] (30 min); 920 nM in data set [3] (60 min); 1030 nM in data set [3] (90 min); 970 nM in data set [3] (120 min). In addition, the “plasma concentration of the compound of the examples” value in data set [3] (180 min) came to 950 nM. The “stability and metabolism to rolapitant” value in data set [3] was “relatively stable in plasma”.
For `C[C@@H](OC[C@@]1(c2ccccc2)CC[C@]2(CCC(=O)N2)CN1C(=O)OCOC(=O)CN)c1cc(C(F)(F)F)cc(C(F)(F)F)c1` [Example 12], the Chemical stability result in data set [2] is “Poor (purity reduced by >2.0% after placing for 7 days)”.
`C[C@H](N)C(=O)OCOC(=O)N1C[C@@]2(CCC(=O)N2)CC[C@@]1(CO[C@H](C)c1cc(C(F)(F)F)cc(C(F)(F)F)c1)c1ccccc1` [Example 13]: the Chemical stability entry in data set [2] was “Moderate (purity reduced by 0.5%~2.0% after placing for 7 days)”.
Compound `CC(OC(=O)[C@@H](N)C(C)C)OC(=O)N1C[C@@]2(CCC(=O)N2)CC[C@@]1(CO[C@H](C)c1cc(C(F)(F)F)cc(C(F)(F)F)c1)c1ccccc1` (stereo partly shown) [Example 14] came in with a solubility in data set [1] (phosphate buffer, PH = 4) of 4500 µg/mL (≈ 6540 µM). Further, in data set [2], the Chemical stability entry is “Good (purity reduced by <0.5% after placing for 7 days)”.
As for `C[C@@H](OC[C@@]1(c2ccccc2)CC[C@]2(CCC(=O)N2)CN1C(=O)OCOC(=O)[C@@H](N)CCCCN)c1cc(C(F)(F)F)cc(C(F)(F)F)c1` [Example 17], the Chemical stability result in data set [2] is “Moderate (purity reduced by 0.5%~2.0% after placing for 7 days)”.
For the compound `CC(C)[C@@H](N)C(=O)OCOC(=O)N1C[C@@]2(CCC(=O)N2)CC[C@@]1(CO[C@H](C)c1cc(C(F)(F)F)cc(C(F)(F)F)c1)c1ccccc1.O=C(O)C(F)(F)F` [Example 18], the Water solubility in data set [1] (PH = 4) is 2.62 mg/mL (PH = 4) mg/ml. Besides, the Chemical stability entry in data set [2] is listed as “Good (purity reduced by <0.5% after placing for 7 days)”.
